From ChEMBL document CHEMBL5727145, “Aminoindane-, aminotetrahydronaphthalene- and aminobenzocyclobutane-derived PRMT5-inhibitors” (2018)
pIC50: −log10 of the molar value.

Biological target: Protein arginine N-methyltransferase 5 (Homo sapiens, UniProt O14744)
Test: iochemical Assay: Compounds of the invention may be tested for in vitro activity in the following assay: A histone H4 derived peptide is used as substrate (amino acid sequence: […]NH2). Full-length PRMT5 enzyme (NCBI Reference sequence NP-006100.2) was co-expressed with Hiss-MEP50 in insect cells and purified via Nickel immobilized metal affinity and gel filtration chromatograph.The 6 μL assay reactions are run in Greiner brand black 384-well low volume plates. All reactions contained assay buffer (phosphate buffered saline, 0.01% (v/v) Tween-20, 0.01% (w/v) albumin from chicken egg white, 1 mM dithiothreitol, 200 nM peptide substrate, 1 μM S-Adenosyl methionine, and 15 ng/reaction enzyme, with the enzyme being omitted from negative control reactions. Compounds were added in a volume of 100 nL from dilution series prepared in DMSO, positive and negative control reactions receiving the same volume DMSO without compound. The plates were sealed with adhesive seals and incubated for 4 hours at 37° C. Reaction progress was measured using the Transcreener™ EPIGEN methyltransferase assay (BellBrook Labs, Madison, Wis.) as recommended by the manufacturer. To each reaction 2 μL detection mix were added, containing coupling enzymes, fluorescence polarisation tracer, and AMP antibody. […]

Chain of Protein arginine N-methyltransferase 5 (O14744 whole entry): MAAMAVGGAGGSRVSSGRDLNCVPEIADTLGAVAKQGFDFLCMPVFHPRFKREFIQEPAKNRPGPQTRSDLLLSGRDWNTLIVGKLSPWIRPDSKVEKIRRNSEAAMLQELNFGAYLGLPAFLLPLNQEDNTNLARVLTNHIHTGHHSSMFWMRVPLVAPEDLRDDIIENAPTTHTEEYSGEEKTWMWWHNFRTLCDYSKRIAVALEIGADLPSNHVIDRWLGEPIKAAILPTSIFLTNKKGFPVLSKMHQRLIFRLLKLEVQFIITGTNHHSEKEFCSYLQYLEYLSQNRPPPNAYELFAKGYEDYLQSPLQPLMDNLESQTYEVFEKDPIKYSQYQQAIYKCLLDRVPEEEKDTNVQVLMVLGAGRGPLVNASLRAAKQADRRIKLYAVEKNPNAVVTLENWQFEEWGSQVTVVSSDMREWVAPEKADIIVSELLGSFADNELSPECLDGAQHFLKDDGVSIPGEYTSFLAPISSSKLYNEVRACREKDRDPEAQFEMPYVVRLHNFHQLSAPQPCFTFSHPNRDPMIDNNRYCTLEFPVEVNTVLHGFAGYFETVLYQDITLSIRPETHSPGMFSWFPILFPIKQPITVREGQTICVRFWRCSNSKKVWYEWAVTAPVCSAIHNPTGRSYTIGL

pIC50	SMILES
4.50	CNC(=O)c1cccc(C(=O)NC[C@@H](O)CNC2Cc3ccccc3C2)c1
5.61	COc1ccc(-c2cc(C(=O)NC[C@H](O)CNC3Cc4ccccc4C3)on2)cc1
